Test results published in patent US4060530A, “Clavulanic acid amides” (Beecham Group Limited, priority 1975, dated 1977).
In brackets after ≈: the same amount, converted by molar mass. Read-outs that look alike come from different tables or passages of the source. Each block holds one compound with its values, some of them ahead of it.

Columns and labels:
Bacillus subtilis A = assay: MIC, method of Example 30 with 1/100 dilution of overnight broth (Example 46)
Staph. aureus Oxford = assay: as above
[1] = test system: strains of Klebsiella aerogenes (A, E 70, 62); assay: Growth inhibition of the test organisms of Table 8 by the esters alone; details: read-out: concentration at which growth of the test organisms was not inhibited
Staph. aureus Russell = assay: MIC, method of Example 30 with 1/100 dilution of overnight broth (Example 46)
Escherchia coli 10418 = assay: as above
[2] = test system: Klebsiella aerogenes E 70; assay: MIC / synergism, microtitre method (Example 42); type: cell-based; details: for Antibacterial synergism value, +5μg/ml. synergist (M.I.C. by method of Example 42): +5μg/ml. synergist (clavulanic acid sodium salt); for MIC: Klebsiella aerogenes
Klebsiella aerogenes A [3] = assay: MIC / synergism, microtitre method (Example 42); type: cell-based; details: for Antibacterial synergism value, +5μg/ml. synergist (M.I.C. by method of Example 42): +5μg/ml. synergist (clavulanic acid sodium salt); for MIC: Klebsiella aerogenes, Alone (Tables 7, 8), Example 42 records M.I.C. in μg/ml, read-out: Antibacterial synergism value, Alone (M.I.C. by method of Example 42)
Klebsiella aerogenes 62 = assay: MIC / synergism, microtitre method (Example 42); type: cell-based; details: for Antibacterial synergism value, +5μg/ml. synergist (M.I.C. by method of Example 42): +5μg/ml. synergist (clavulanic acid sodium salt); for MIC: Klebsiella aerogenes, 62, Alone (Tables 7, 8), Example 42 records M.I.C. in μg/ml, read-out: Antibacterial synergism value, Alone (M.I.C. by method of Example 42)
Klebsiella aerogenes A [4] = assay: Growth inhibition / synergism; type: cell-based; details: for MIC: Klebsiella aerogenes, agent alone, read-out: concentration in whose presence growth is not inhibited; for concentration inhibiting growth when 5 μg/ml. of clavulanic acid is also present: plus 5 μg/ml clavulanic acid
[5] = test system: Escherichia coli NCTC 10481; assay: MIC / synergism, microtitre method (Example 42); type: cell-based; details: NCTC10481, agent alone, inoculum final dilution 0.5 ×10^-2, 37° C overnight, read-out: Minimum Inhibitory Concentration
[6] = test system: Staphylococcus aureus (Russell); assay: M.I.C. synergism with clavulanic acid methyl ester (Example 32); type: cell-based
[7] = test system: Staphylococcus aureus Russell; assay: Growth inhibition / synergism; type: cell-based; details: for MIC: Staphylococcus aureus, agent alone, read-out: concentration in whose presence growth is not inhibited
Staphylococcus aureus = assay: MIC / synergism, microtitre method (Example 42); type: cell-based; details: for MIC: Staphylococcus aureus, agent alone (Tables 5, 6), inoculum final dilution 0.5 ×10^-2, 37° C overnight, read-out: Minimum Inhibitory Concentration
Serratia marcescens = assay: MIC / synergism, microtitre method (Example 42); type: cell-based; details: agent alone, inoculum final dilution 0.5 ×10^-2, 37° C overnight, read-out: Minimum Inhibitory Concentration
Proteus mirabilis C889 = assay: M.I.C. synergism with clavulanic acid methyl ester (Example 32); type: cell-based; details: plus 5 μg/ml clavulanic acid methyl ester
Proteus mirabilis 899 = assay: microbe, parasite or virus in culture; type: cell-based; details: method of Example 42
[8] = test system: Staphylococcus aureus (Russell); assay: MIC / synergism, microtitre method (Example 42); type: cell-based
bacteria = assay: Tests for antibacterial activity in broth (Example 32); type: cell-based; details: may be due to clavulanic acid liberated by hydrolysis
[9] = Hydrolysis of the methyl ester to clavulanic acid in pH 7 buffer; type: physicochemical
Method: The reaction was followed by paper chromatography (bioautographic system). Using the butanol/ethanol/water system to follow the reaction over a period of 2 hours the zone of the methyl ester at Rf 0.79 decreased in size as the zone of clavulanic acid at Rf 0.12 increased.

[10] = molecular target: T1, β-lactamase produced by Escherichia coli JT4 (Escherichia coli, UniProt P62593); assay: β-lactamase inhibition assay (Description 1); type: biochemical
T1 construct: This cell suspension was then disrupted in an MSE ultrasonic disintegrator; endogenous in cells; supernatant of sonicated cells

[11] = heavy inoculum, 1/100 dilution of overnight broth, Example 30 records MIC in μg/ml
[12] = with 5 μg/ml of benzyl ester of clavulanic acid
[13] = with 5 μg/ml of methyl ester of clavulanic acid
[14] = plus 5 μg/ml clavulanic acid sodium salt, method of Example 42

T1 sequence (P62593 24-286 limits assumed): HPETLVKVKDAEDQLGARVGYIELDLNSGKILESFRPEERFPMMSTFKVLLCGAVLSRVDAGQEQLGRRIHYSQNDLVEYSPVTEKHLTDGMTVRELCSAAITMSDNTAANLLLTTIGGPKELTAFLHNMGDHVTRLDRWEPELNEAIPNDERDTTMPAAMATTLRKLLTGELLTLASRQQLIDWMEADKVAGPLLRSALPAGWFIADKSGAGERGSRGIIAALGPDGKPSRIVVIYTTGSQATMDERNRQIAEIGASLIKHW

- MIC (Bacillus subtilis A; Bacillus subtilis): 250 mg/L (≈ 864 µM)
- MIC (Staph. aureus Oxford; Staphylococcus aureus): 62 mg/L (≈ 214 µM)
- MIC [1]: > 100 mg/L
- MIC (Staph. aureus Russell; Staphylococcus aureus): 125 mg/L (≈ 432 µM)
- MIC (Escherchia coli 10418): 125 mg/L (≈ 432 µM)
SMILES: O=C(OCc1ccccc1)[C@H]1/C(=C/CO)O[C@@H]2CC(=O)N21 [Benzyl ester, benzyl ester of 3-(β-hydroxyethylidine)-7-oxo-4-oxa-1-azabicyclo [3,2,0]heptane-2-carboxylic acid]

SMILES: CC1(C)S[C@@H]2[C@H](NC(=O)Cc3ccccc3)C(=O)N2[C@H]1C(=O)O [Benzylpenicillin, benzylpenicillin]
- Antibacterial synergism value, +5μg/ml. synergist (M.I.C. by method of Example 42) [2]: 15.6
- MIC ([2]; E70, read-out: Antibacterial synergism value, Alone (M.I.C. by method of Example 42)): 500 mg/L
- Antibacterial synergism value, +5μg/ml. synergist (M.I.C. by method of Example 42) (Klebsiella aerogenes A [3]): 7.8
- MIC (Klebsiella aerogenes A [3]): 250 mg/L
- Antibacterial synergism value, +5μg/ml. synergist (M.I.C. by method of Example 42) (Klebsiella aerogenes 62): 15.6
- MIC (Klebsiella aerogenes 62): 250 mg/L
- MIC (Klebsiella aerogenes A [4]): > 125 mg/L
- concentration inhibiting growth when 5 μg/ml. of clavulanic acid is also present (Klebsiella aerogenes A [4]): less than 12.5 μg/ml

- MIC (Bacillus subtilis A; Bacillus subtilis): 31 mg/L (≈ 95.3 µM)
- MIC (Staph. aureus Oxford; Staphylococcus aureus): 31 mg/L (≈ 95.3 µM)
- MIC (Staph. aureus Russell; Staphylococcus aureus): 31 mg/L (≈ 95.3 µM)
- MIC (Escherchia coli 10418): 250 mg/L (≈ 768 µM)
SMILES: CCCCCCCCCOC(=O)[C@H]1/C(=C/CO)O[C@@H]2CC(=O)N21 [Nonyl ester, Nonyl Clavulanate]

- MIC (Bacillus subtilis A; [11]): 125
- MIC (Staph. aureus Oxford; [11]): 31
- MIC (Staph. aureus Russell; [11]): 15
- MIC (Escherchia coli 10418; [11]): 125
SMILES: O=C1OC(OC(=O)[C@H]2/C(=C/CO)O[C@@H]3CC(=O)N32)c2ccccc21 (stereo partly shown) [Phthalidyl ester, Clavulanic Acid Phthalide Esters]

- MIC (Bacillus subtilis A; Bacillus subtilis): 62 mg/L (≈ 198 µM)
- MIC (Staph. aureus Oxford; Staphylococcus aureus): 31 mg/L (≈ 98.9 µM)
- MIC (Staph. aureus Russell; Staphylococcus aureus): 62 mg/L (≈ 198 µM)
- MIC (Escherchia coli 10418): 125 mg/L (≈ 399 µM)
SMILES: CC(C)(C)C(=O)OCOC(=O)[C@H]1/C(=C/CO)O[C@@H]2CC(=O)N21 [Pivaloyloxymethyl ester, Pivaloyloxymethyl Clavulanate]

SMILES: CC1(C)S[C@@H]2[C@H](NC(=O)[C@H](N)c3ccccc3)C(=O)N2[C@H]1C(=O)O [ampicillin]
- MIC [5]: 1.8 mg/L
- M.I.C. in the presence of 1.0 μg/ml. clavulanic acid methyl ester ([6]; plus 1 μg/ml clavulanic acid methyl ester): < 0.4 µg/mL
- MIC [7]: > 100 mg/L
- concentration inhibiting growth in the presence of 1 μg/ml. of clavulanic acid ([7]; plus 1 μg/ml clavulanic acid): less than 10 μg/ml
- Ampicillin 5 μg/ml of Benzyl Ester of clavulanic acid (M.I.C. by method of Example 42) [2, 12]: 3.9
- Ampicillin 5 μg/ml of Methyl Ester of clavulanic acid (M.I.C. by method of Example 42) [2, 13]: 3.9
- MIC (Staphylococcus aureus): 250 mg/L
- MIC (Serratia marcescens): > 500 mg/L
- M.I.C. in the presence of 5 μg/ml. clavulanic acid methyl ester (Proteus mirabilis C889): 31 µg/mL
- Ampicillin 5 μg/ml of Benzyl Ester of clavulanic acid (M.I.C. by method of Example 42) (Klebsiella aerogenes A [3]; [12]): 1.9
- Ampicillin 5 μg/ml of Methyl Ester of clavulanic acid (M.I.C. by method of Example 42) (Klebsiella aerogenes A [3]; [13]): 1.9
- Ampicillin 5 μg/ml of Benzyl Ester of clavulanic acid (M.I.C. by method of Example 42) (Klebsiella aerogenes 62; [12]): 3.9
- Ampicillin 5 μg/ml of Methyl Ester of clavulanic acid (M.I.C. by method of Example 42) (Klebsiella aerogenes 62; [13]): 3.9

SMILES: CC1(C)S[C@@H]2[C@H](NC(=O)C(C(=O)O)c3ccccc3)C(=O)N2[C@H]1C(=O)O (stereo partly shown) [carbenicillin]
- Antibacterial synergism value, +5μg/ml. synergist (M.I.C. by method of Example 42) [2]: 15
- MIC ([2]; E70, Alone (Tables 7, 8), Example 42 records M.I.C. in μg/ml, read-out: Antibacterial synergism value, Alone (M.I.C. by method of Example 42)): 500 mg/L
- Antibacterial synergism value, +5μg/ml. synergist (M.I.C. by method of Example 42) (Klebsiella aerogenes A [3]): 7.8
- MIC (Klebsiella aerogenes A [3]): 500 mg/L
- Antibacterial synergism value, +5μg/ml. synergist (M.I.C. by method of Example 42) (Klebsiella aerogenes 62): 7.8
- MIC (Klebsiella aerogenes 62): 125 mg/L
- MIC (Klebsiella aerogenes A [4]): > 125 mg/L
- concentration inhibiting growth when 5 μg/ml. of clavulanic acid is also present (Klebsiella aerogenes A [4]): less than 12.5 μg/ml

SMILES: O=C(Cc1cccs1)N[C@@H]1C(=O)N2C(C(=O)[O-])=C(C[n+]3ccccc3)CS[C@H]12 [cephaloridine]
- MIC (Proteus mirabilis 899; Proteus mirabilis, 899, agent alone, * = Tailing Point, read-out: Minimum Inhibitory Concentration): 62 mg/L (≈ 149 µM)
- Minimum Inhibitory Concentration in presence of 5μg/ml clavulanic acid sodium salt (Proteus mirabilis 899; plus 5 μg/ml clavulanic acid sodium salt): 7.5 µg/mL
- M.I.C. in the presence of 1.0 μg/ml. clavulanic acid methyl ester [6]: < 0.03 µg/mL
- MIC ([6]; Staphylococcus aureus, antibiotic alone, read-out: minimum inhibitory concentration (M.I.C.)): 1.5 mg/L
- MIC (Staphylococcus aureus): 15 mg/L
- Minimum Inhibitory Concentration in presence of 5μg/ml clavulanic acid sodium salt (Staphylococcus aureus; [14]): 3.7 µg/mL
- MIC ([8]; Staphylococcus aureus, agent alone (Tables 5, 6), inoculum final dilution 0.5 ×10^-2, 37° C overnight, read-out: Minimum Inhibitory Concentration): 3.1 mg/L
- Minimum Inhibitory Concentration in presence of 5μg/ml clavulanic acid sodium salt [8, 14]: < 0.03 µg/mL

SMILES: COC(=O)[C@H]1/C(=C/CO)O[C@@H]2CC(=O)N21 [clavulanic acid methyl ester]
- MIC [1]: > 100 mg/L
- antibacterial activity in broth (bacteria): broad spectrum activity but of a lower order than shown by clavulanic acid
- conversion of the ester to clavulanic acid ([9]; 1 mg/ml, 37° C, 0.05M phosphate buffer pH 7, followed over 2 hours by paper chromatography): Slow conversion of the ester to clavulanic acid
- hydrolysis to clavulanic acid ([9]; water buffered to pH7): slowly hydrolyze to clavulanic acid
- MIC (Klebsiella aerogenes A [4]): > 10 mg/L

SMILES: O=C(O)[C@H]1/C(=C/CO)O[C@@H]2CC(=O)N21 [clavulanic acid, Z-(2R,5R)-3-(β-hydroxyethylidene)-7-oxo-4-oxa-1-azabicyclo[3,2,0]heptane-2-carboxylic acid]
- mode of inhibition of the β-lactamase of Escherichia coli [10]: progressively and irreversibly inhibits
- MIC [7]: > 5 mg/L
